This passage reports IC50 and inhibition results from patent US10435361B2, “Kinase inhibitors” (Topivert Pharma Limited, priority 2013, dated 2019).

Usually pIC50 stands for −log10 of the IC50, conventionally taken in molar units. For orientation: inhibition means how much of the control response was suppressed.

pIC50: −log10 of the molar value.

What all share (format): cell-based
One assay deals with HT29 cells. Kind of assay: IL-1β-induced IL-8 release in HT29 cells. Particulars: Homo sapiens, HT-29, assay (d), read-out: IC50 Values for Inhibition of Cytokine Release HT29 cells IL-8. The procedure:
HT29 cells, a human colon adenocarcinoma cell line, are plated in a 96 well plate (24 hr) and pre-treated with compounds at the desired concentration for 2 hours before addition of 5 ng/mL of IL-1β (Abcam) for 24 hours. Supernatants are harvested for IL-8 quantification by Sandwich ELISA (Duo-set, R&D System). The IC50 is determined from the dose response curve.

In assay [1] the test system is PBMCs. The assay is described as follows: LPS-induced TNFα/IL-8 release in PBMC cells. The following applies: Homo sapiens, assay (b), read-out: IC50 Values for Inhibition of Cytokine Release PBMCs IL-8. The procedure, abridged: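 Healthy-donor PBMCs isolated by density gradient were pretreated with compound for 2 h, then stimulated with 1 ng/mL LPS (E. coli 0111:B4) for 24 h at 37° C., 5% CO2. IL-8 and TNFα in supernatants measured by sandwich ELISA.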

The subject of assay [2] is PBMCs. Kind of assay: Cell mitosis assay in PBMCs. Particulars: Homo sapiens, PBMC, 5 μg/mL. The procedure: Peripheral blood mononucleocytes (PBMCs) from healthy subjects are separated from whole blood (Quintiles, London, UK) using a density gradient (Histopaque®-1077, Sigma-Aldrich, Poole, UK). The PBMCs (3 million cells per sample) are subsequently treated with 2% PHA (phytohaemagglutinin, Sigma-Aldrich, Poole, UK) for 48 hr, followed by a 20 hr exposure to varying concentrations of test compounds. At 2 hr before collection, PBMCs are treated with demecolcine (0.1 μg/mL; Invitrogen, Paisley, UK) to arrest cells in metaphase. To observe mitotic cells, PBMCs are permeabilised and fixed by adding Intraprep (50 μL; Beckman Coulter, France), and stained with anti-phospho-histone 3 (0.26 ng/L; #9701; Cell Signalling, Danvers, Mass.) and propidium iodide (1 mg/mL; Sigma-Aldrich, Poole, UK) as previously described (Muehlbauer P. A. and Schuler M. J., Mutation Research, 2003, 537:117-130). Fluorescence is observed using an ATTUNE flow cytometer (Invitrogen, Paisley, UK), gating for lymphocytes.

The subject of assay [3] is PBMCs. The assay is described as follows: IL-2 and IFN gamma release in CD3/CD28 stimulated PBMC cells. The following applies: Homo sapiens, assay (c). The procedure, abridged:
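Healthy-donor PBMCs, density-gradient isolated, stimulated on plates pre-coated with anti-CD3 (0.3 μg/mL) and anti-CD28 (3 μg/mL) antibodies, with compound, for 3 days under standard culture conditions. IC50 derived from the dose-response curve.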

[4] abbreviates: read-out: IC50 Values for Inhibition of Cytokine Release PBMCs IFNγ.
Where [5] appears, read: read-out: IC50 Values for Inhibition of Cytokine Release PBMCs IL-2.

For the molecule `CNC(=O)c1cc(NC(=O)Nc2ccc(Oc3ccnc(Nc4cc(OC)cc(OCCOCCOCCOC)c4)n3)c3ccccc23)cc(C(C)(C)C)c1` [Example 23, 3-(tert-Butyl)-5-(3-(4-((2-((3-methoxy-5-(2-(2-(2-methoxyethoxy)ethoxy)ethoxy)phenyl)-amino)pyrimidin-4-yl)oxy)naphthalen-1-yl)ureido)-N-methylbenzamide], the pIC50 was 8.33 in the assay with HT29 cells, 8.59 in the assay on PBMCs [1], 8.04 with PBMCs [3] (setting [4]) and 7.77 with PBMCs [3] (setting [5]). In the assay on PBMCs [2], the inhibition at 5 µg/mL stood at 25.4%.
The corresponding values for `COCCOCCOc1cc(Nc2nccc(Oc3ccc(NC(=O)Nc4cc(C(C)(C)C)cc(NS(C)(=O)=O)c4OC)c4ccccc34)n2)cc(OC)c1` [Example 36, N-(5-(tert-Butyl)-2-methoxy-3-(3-(4-((2-((3-methoxy-5-(2-(2-methoxyethoxy)ethoxy)-phenyl)amino)pyrimidin-4-yl)oxy)naphthalen-1-yl)ureido)phenyl)methanesulfonamide] are 9.10, 8.74, 8.24, 7.19 and 45%.
The corresponding values for `C#Cc1cc(Nc2cc(Oc3ccc(NC(=O)Nc4cc(C(C)(C)C)cc(C(=O)NC)c4OC)c4ccccc34)ccn2)cc(C(=O)NCCN2CCOCC2)c1` [Example 39, 5-(tert-Butyl)-3-(3-(4-((2-((3-ethynyl-5-((2-morpholinoethyl)carbamoyl)phenyl)amino)-pyridin-4-yl)oxy)naphthalen-1-yl)ureido)-2-methoxy-N-methylbenzamide] are 8.28, 8.60, 8.02, 6.88 and 34.7%.
Take `COCCOCCOCCOCCOCCOCCOCCOc1cc(Nc2cc(Oc3ccc(NC(=O)Nc4cc(C(C)(C)C)cc(NS(C)(=O)=O)c4OC)c4ccccc34)ccn2)cc(OC)c1` [Example 45, N-(3-(3-(4-((2-((3-(2,5,8,11,14,17,20-Heptaoxadocosan-22-yloxy)-5-methoxyphenyl)-amino)pyridin-4-yl)oxy)naphthalen-1-yl)ureido)-5-(tert-butyl)-2-methoxyphenyl)methane-sulfonamide]: the pIC50 is 8.68 in the assay on HT29 cells, 8.85 in the assay on PBMCs [1], 8.11 in the assay on PBMCs [3] (setting [4]) and 6.74 with PBMCs [3] (setting [5]). In addition, the inhibition at 5 µg/mL in the assay on PBMCs [2] was 45%.
As for `C#Cc1cc(Nc2cc(Oc3ccc(NC(=O)Nc4cc(C(C)(C)C)cc(C(N)=O)c4OC)c4ccccc34)ccn2)cc(C(=O)NCCN2CCOCC2)c1` [Example 48, 3-((4-((4-(3-(5-(tert-Butyl)-3-carbamoyl-2-methoxyphenyl)ureido)naphthalen-1-yl)oxy)pyridin-2-yl)amino)-5-ethynyl-N-(2-morpholinoethyl)benzamide], the negative logarithm of the IC50 (pIC50) in the assay with HT29 cells is 7.99; in the assay with PBMCs [1], 8.47; with PBMCs [3] (setting [4]) it was 7.76; with PBMCs [3] (setting [5]), 6.84. The molecule also registered an inhibition at 5 µg/mL with PBMCs [2] of 44.2%.
For `C#Cc1cc(Nc2cc(Oc3ccc(NC(=O)Nc4cc(C(C)(C)C)cc(NS(C)(=O)=O)c4OC)c4ccccc34)ccn2)cc(C(=O)NCCN2CCOCC2)c1` [Example 49, 3-((4-((4-(3-(5-(tert-Butyl)-2-methoxy-3-(methylsulfonamido)phenyl)ureido)naphthalen-1-yl)oxy)pyridin-2-yl)amino)-5-ethynyl-N-(2-morpholinoethyl)benzamide], the pIC50 was 8.07 in the assay on HT29 cells, 8.60 in the assay on PBMCs [1], 7.96 in the assay with PBMCs [3] (setting [4]) and 6.64 in the assay on PBMCs [3] (setting [5]). The molecule further displayed an inhibition at 5 µg/mL with PBMCs [2] of 40.1%.
The corresponding values for `COCCOCCOCCOc1cc(Nc2nccc(Oc3ccc(NC(=O)Nc4cc(C(C)(C)C)cc(C(=O)NC5COC5)c4OC)c4ccccc34)n2)cc(OC)c1` [Example 51, 5-(tert-Butyl)-2-methoxy-3-(3-(4-((2-((3-methoxy-5-(2-(2-(2-methoxyethoxy)ethoxy)-ethoxy)phenyl)amino)pyrimidin-4-yl)oxy)naphthalen-1-yl)ureido)-N-(oxetan-3-yl)-benzamide] are 8.77, 8.80, 8.74, 7.33 and 44.3%.
Take `C#Cc1cc(Nc2cc(Oc3ccc(NC(=O)Nc4cc(C(C)(C)C)cc(NS(C)(=O)=O)c4OC)c4ccccc34)ccn2)cc(C(=O)NCCOCCOC)c1` [Example 52, 3-((4-((4-(3-(5-(tert-Butyl)-2-methoxy-3-(methylsulfonamido)phenyl)ureido)naphthalen-1-yl)oxy)pyridin-2-yl)amino)-5-ethynyl-N-(2-(2-methoxyethoxy)ethyl)benzamide]: the pIC50 with HT29 cells is 7.76; in the assay with PBMCs [1], 8.62; in the assay on PBMCs [3] (setting [4]), 7.41; in the assay on PBMCs [3] (setting [5]), 6.69. In the assay with PBMCs [2], this molecule displayed an inhibition at 5 µg/mL of 31%.
The corresponding values for `C#Cc1cc(Nc2cc(Oc3ccc(NC(=O)Nc4cc(C(C)(C)C)cc(C(N)=O)c4OC)c4ccccc34)ccn2)cc(C(=O)NCCOCCOCCOC)c1` [Example 53, 3-((4-((4-(3-(5-(tert-Butyl)-3-carbamoyl-2-methoxyphenyl)ureido)naphthalen-1-yl)oxy)pyridin-2-yl)amino)-5-ethynyl-N-(2-(2-(2-methoxyethoxy)ethoxy)ethyl)benzamide] are 8.19, 8.80, 7.83, 6.74 and 30.3%.
`COCCOCCOCCOc1cc(Nc2nccc(Oc3ccc(NC(=O)Nc4cc(C(C)(C)C)cc(S(N)(=O)=O)c4OC)c4ccccc34)n2)cc(OC)c1` [Example 55, 5-(tert-Butyl)-2-methoxy-3-(3-(4-((2-((3-methoxy-5-(2-(2-(2-methoxyethoxy)ethoxy)-ethoxy)phenyl)amino)pyrimidin-4-yl)oxy)naphthalen-1-yl)ureido)benzenesulfonamide]: the pIC50 was 8.35 in the assay with HT29 cells, 8.66 in the assay on PBMCs [1], 7.92 in the assay on PBMCs [3] (setting [4]) and 7.45 in the assay with PBMCs [3] (setting [5]). In the assay with PBMCs [2], testing at 5 µg/mL gave an inhibition of 54.3%.
The corresponding values for `C#Cc1cc(Nc2nccc(Oc3ccc(NC(=O)Nc4cc(C(C)(C)C)cc(NS(C)(=O)=O)c4OC)c4ccccc34)n2)cc(C(=O)N[C@H](C)CN2CCOCC2)c1` [Example 56, (R)-3-((4-((4-(3-(5-(tert-Butyl)-2-methoxy-3-(methylsulfonamido)phenyl)ureido)-naphthalen-1-yl)oxy)pyrimidin-2-yl)amino)-5-ethynyl-N-(1-morpholinopropan-2-yl)-benzamide] are 8.07, 8.74, 7.91, 7.45 and 46.4%.
The corresponding values for `C#Cc1cc(Nc2nccc(Oc3ccc(NC(=O)Nc4cc(C(C)(C)C)cc(NS(C)(=O)=O)c4OC)c4ccccc34)n2)cc(C(=O)N[C@@H](C)CN2CCOCC2)c1` [Example 57, (S)-3-((4-((4-(3-(5-(tert-butyl)-2-methoxy-3-(methylsulfonamido)phenyl)ureido)-naphthalen-1-yl)oxy)pyrimidin-2-yl)amino)-5-ethynyl-N-(1-morpholinopropan-2-yl)benzamide] are 7.67, 8.44, 7.13, 6.85 and 42.1%.
For `COCCOCCOCCOc1cc(Nc2nccc(Oc3ccc(NC(=O)Nc4cc(C(C)(C)C)cc(NS(C)(=O)=O)c4OC)c4ccccc34)n2)cc(OC)c1Cl` [Example 58, N-(5-(tert-Butyl)-3-(3-(4-((2-((4-chloro-3-methoxy-5-(2-(2-(2-methoxyethoxy)ethoxy)ethoxy)-phenyl)amino)pyrimidin-4-yl)oxy)naphthalen-1-yl)ureido)-2-methoxyphenyl)-methanesulfonamide], the pIC50 in the assay with HT29 cells is 7.97; in the assay on PBMCs [1], 8.59; in the assay on PBMCs [3] (setting [4]) it was 7.77; with PBMCs [3] (setting [5]), 6.86. For the same molecule, the inhibition at 5 µg/mL with PBMCs [2] is 41.7%.
The corresponding values for `C#Cc1cc(Nc2cc(Oc3ccc(NC(=O)Nc4cc(NS(C)(=O)=O)cc(C(C)(C)C)c4)c4ccccc34)ccn2)cc(C(=O)NCCN2CCOCC2)c1` [Example 65, 3-((4-((4-(3-(3-(tert-Butyl)-5-(methylsulfonamido)phenyl)ureido)naphthalen-1-yl)oxy)-pyridin-2-yl)amino)-5-ethynyl-N-(2-morpholinoethyl)benzamide] are 6.84, 8.40, 7.46, 6.88 and 51.1%.
